Laboratory results from patent US4421911A, “Deoxydesmycosin” (priority 1981, dated 1983).
In brackets after ≈: the same amount, converted by molar mass. Where two headings read alike, the source gives them in different places.

Key:
Type in all cases: cell-based
[1] = system: Staphylococcus aureus ATCC6538p; test: Minimum inhibitory concentration (MIC), Staphylococcus aureus ATCC6538p
[2] = system: Staphylococcus aureus MS353; test: Minimum inhibitory concentration (MIC), Staphylococcus aureus MS353
[3] = system: Staphylococcus aureus MS353AO; test: Minimum inhibitory concentration (MIC), Staphylococcus aureus MS353AO; settings: macrolide resistant strain A group
Excerpt: (§1) The minimum inhibitory concentration (MIC) of the compounds of the present invention is illustrated in Table 1.
(§2) *Macrolide registant strain A group (clinical isolates of erythromycin,
(§3) oleandomycin and 16membered macrolide antibiotics registant strains)

[4] = system: Staphylococcus aureus 0116; test: Minimum inhibitory concentration (MIC), Staphylococcus aureus 0116
Excerpt: as §1, §2, §3

[5] = system: Staphylococcus aureus 0119; test: Minimum inhibitory concentration (MIC), Staphylococcus aureus 0119
Excerpt: as §1, §2, §3

[6] = system: Staphylococcus aureus 0127; test: Minimum inhibitory concentration (MIC), Staphylococcus aureus 0127
Excerpt: as §1, §2, §3

[7] = system: Streptococcus pyogenes N.Y.5; test: Minimum inhibitory concentration (MIC), Streptococcus pyogenes N.Y.5
[8] = system: Streptococcus pyogenes 1022; test: Minimum inhibitory concentration (MIC), Streptococcus pyogenes 1022
Excerpt: as §1, §2, §3

[9] = Staphylococcus aureus 0116, macrolide resistant strain A group, read-out: MIC
[10] = Staphylococcus aureus 0127, macrolide resistant strain A group, read-out: MIC
[11] = Streptococcus pyogenes 1022, macrolide resistant strain A group, read-out: MIC

Compound	MIC [1] [µg/mL]	MIC [2] [µg/mL]	MIC [3] [µg/mL]	MIC [4, 9] [µg/mL]	MIC ([5]; Staphylococcus aureus, 0119) [µg/mL]	MIC [6, 10] [µg/mL]	MIC [7] [µg/mL]	MIC [8, 11] [µg/mL]	MIC ([5]; Staphylococcus aureus 0119, macrolide resistant strain A group, read-out: MIC) [µg/mL]	MIC ([6]; Staphylococcus aureus, 0127) [µg/mL]	MIC ([4]; Staphylococcus aureus, 0116) [µg/mL]	MIC ([8]; Streptococcus pyogenes, 1022) [µg/mL]
CCC1OC(=O)CC(O)C(C)C(OC2OC(C)CC(N(C)C)C2O)C(CC=O)CC(C)C(=O)/C=C/C(C)=C/C1COC1OC(C)CC(OC)C1OC (centres unmarked) [R1 = H, R2 = H, 4', 4"-di-deoxy-desmycosin]	0.4 (≈ 0.541 µM)	0.2 (≈ 0.27 µM)	50 (≈ 67.6 µM)	3.1 (≈ 4.19 µM)	12.5 (≈ 16.9 µM)	12.5 (≈ 16.9 µM)	≤ 0.05	25 (≈ 33.8 µM)				
CCC1OC(=O)CC(O)C(C)C(OC2OC(C)CC(N(C)C)C2O)C(CC=O)CC(C)C(=O)/C=C/C(C)=C/C1COC1OC(C)C(O)C(OC)C1OC (centres unmarked) [R1 = H, R2 = OH, 4'-deoxy-desmycosin]	0.8 (≈ 1.06 µM)	0.8 (≈ 1.06 µM)	50 (≈ 66.1 µM)	3.1 (≈ 4.1 µM)	6.3 (≈ 8.33 µM)	12.5 (≈ 16.5 µM)	0.1 (≈ 0.132 µM)	3.1 (≈ 4.1 µM)				
CCC1OC(=O)CC(O)C(C)C(OC2OC(C)C(O)C(N(C)C)C2O)C(CC=O)CC(C)C(=O)/C=C/C(C)=C/C1COC1OC(C)CC(OC)C1OC (centres unmarked) [R1 = OH, R2 = H, 4"-deoxy-desmycosin]	0.4 (≈ 0.529 µM)	0.4 (≈ 0.529 µM)	6.3 (≈ 8.33 µM)	1.6 (≈ 2.12 µM)			≤ 0.05	3.1 (≈ 4.1 µM)	1.6 (≈ 2.12 µM)	6.3 (≈ 8.33 µM)		
CC[C@H]1OC(=O)C[C@@H](O)[C@H](C)[C@@H](O[C@@H]2O[C@H](C)[C@@H](O[C@H]3C[C@@](C)(O)[C@@H](O)[C@H](C)O3)[C@H](N(C)C)[C@H]2O)[C@@H](CC=O)C[C@@H](C)C(=O)/C=C/C(C)=C/[C@@H]1CO[C@@H]1O[C@H](C)[C@@H](O)[C@@H](OC)[C@H]1OC [Tylosin, tylosin, reference compound]	0.8 (≈ 0.873 µM)	1.6 (≈ 1.75 µM)	> 100		> 100		0.2 (≈ 0.218 µM)			> 100	> 100	> 100
